ChEMBL document CHEMBL1201862, “PubChem BioAssay data set” (2004)
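Tested at 5 concentrations; 48 h exposure; 96-well plates; endpoints linearly interpolated, else capped at highest concentration. GI50 = concentration required for 50% inhibition of growth.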 Calls of active or inactive are those of the source. Rule as the data show it: active = GI50 up to about 1.1 µM and inactive = higher.

Columns and labels:
Experiment in all cases: NCI-60 cell line screen, 48 h
A549 = test system: A549
COLO 205 = test system: COLO 205
DMS-273 = test system: DMS-273
EKVX = test system: EKVX
HT-29 = test system: HT-29
Hs-578T = test system: Hs-578T
MCF7 = test system: MCF7
MDA-MB-231 = test system: MDA-MB-231
MOLT-4 = test system: MOLT-4
NCI-H226 = test system: NCI-H226
NCI-H23 = test system: NCI-H23
OVCAR-5 = test system: OVCAR-5
PC-3 = test system: PC-3
SF-268 = test system: SF-268
SNB-19 = test system: SNB-19
SNB-75 = test system: SNB-75
SR = test system: SR
U-251 = test system: U-251
ACHN = test system: ACHN
T47D = test system: T47D

Compound	GI50 (A549)	GI50 (COLO 205)	GI50 (DMS-273)	GI50 (EKVX)	GI50 (HT-29)	GI50 (Hs-578T)	GI50 (MCF7)	GI50 (MDA-MB-231)	GI50 (MOLT-4)	GI50 (NCI-H226)	GI50 (NCI-H23)	GI50 (OVCAR-5)	GI50 (PC-3)	GI50 (SF-268)	GI50 (SNB-19)	GI50 (SNB-75)	GI50 (SR)	GI50 (U-251)	GI50 (ACHN)	GI50 (T47D)
CN[C@@H]1C[C@H]2O[C@@](C)([C@@H]1OC)n1c3ccccc3c3c4c(c5c6ccccc6n2c5c31)C(=O)N[C@@H]4O	0.0278 µM (active)	0.0569 µM (active)	0.0352 µM (active)	0.0183 µM (active)	0.125 µM (active)	0.00454 µM (active)	0.0212 µM (active)	0.0137 µM (active)	0.0259 µM (active)	0.0194 µM (active)	0.0338 µM (active)	0.015 µM (active)	0.00904 µM (active)	0.0408 µM (active)	0.12 µM (active)	< 0.0121 µM (active)	0.0132 µM (active)	0.0456 µM (active)	–	–
CCN(CC)Cc1c(/C=C\c2cc(OC)c(OC)c(OC)c2)ccc(OC)c1O	4.25 µM (inactive)	2.45 µM (inactive)	2.2 µM (inactive)	6.1 µM (inactive)	2.76 µM (inactive)	2.08 µM (inactive)	3.17 µM (inactive)	4.28 µM (inactive)	15.3 µM (inactive)	3.67 µM (inactive)	2.97 µM (inactive)	9.48 µM (inactive)	1.8 µM (inactive)	5.21 µM (inactive)	10.3 µM (inactive)	1.84 µM (inactive)	–	2.87 µM (inactive)	8.59 µM (inactive)	> 100 µM (inactive)
C=CC(=O)c1ccc2c(c1)OCCOCCOCCOCCOCCO2	> 100 µM (inactive)	17.7 µM (inactive)	15.7 µM (inactive)	24 µM (inactive)	28.9 µM (inactive)	> 100 µM (inactive)	16 µM (inactive)	21.3 µM (inactive)	38.1 µM (inactive)	> 100 µM (inactive)	> 44.4 µM (inactive)	33.4 µM (inactive)	30.9 µM (inactive)	> 55.6 µM (inactive)	> 100 µM (inactive)	> 49.3 µM (inactive)	> 100 µM (inactive)	> 57.5 µM (inactive)	17.7 µM (inactive)	29.3 µM (inactive)
